Experiment: Repeated administration: body weight change in DIO mice
Format: in vivo, Mouse, C57BL/6J-DIO
Protocol: The body weight of each mouse was measured on the day of the start of administration of the test substances (before administration), and thereafter, the body weight was measured every day ([…]), and the amount of the administration solution of the test substances was determined on the basis of the most recently measured body weight.
All the experimental results obtained in the present example were expressed as mean±standard error and tested using Prism5 (version 5.01). One-way analysis of variance (ANOVA) was performed on all data, and when significance was observed, Dunnett's test was performed to find out the test groups with a significant difference from the control group (significance level: two-sided 5% and 1%, 0.1%).
Except for the administration dose, animal number and administration cycle, most of the test processes were the same as in Example 2.1.1 above.
The test substances were administered twice a week (Days 0, 4, 7, 11, 14, 18, 21, 25) for a total of 8 times. For comparison, the control group in which the control substance Semaglutide was administered every day was prepared, and the comparison group in which Semaglutide was administered every day was administered once a day daily, and all the administration was progressed from 9 AM.

HT-ID3-GDF15: Fusion polypeptide: His-Tag, TEV cleavage site, three IgD hinges, GS linker, GDF15 (SEQ ID NO: 3)
Body Weight, Mean (Day 0, 3 nmol/kg twice a week): 100.0 % of initial | Body Weight, Mean (Day 0, 10 nmol/kg twice a week): 100.0 % of initial | Body Weight, Mean (Day 0, 30 nmol/kg twice a week): 100.0 % of initial | Body Weight, Mean (Day 1, 3 nmol/kg twice a week): 98.2 % of initial | Body Weight, Mean (Day 1, 10 nmol/kg twice a week): 98.5 % of initial | Body Weight, Mean (Day 1, 30 nmol/kg twice a week): 98.2 % of initial | Body Weight, Mean (Day 2, 3 nmol/kg twice a week): 96.9 % of initial | Body Weight, Mean (Day 2, 10 nmol/kg twice a week): 97.3 % of initial | Body Weight, Mean (Day 2, 30 nmol/kg twice a week): 97.1 % of initial | Body Weight, Mean (Day 3, 3 nmol/kg twice a week): 95.6 % of initial | Body Weight, Mean (Day 3, 10 nmol/kg twice a week): 95.7 % of initial | Body Weight, Mean (Day 3, 30 nmol/kg twice a week): 95.8 % of initial | Body Weight, Mean (Day 4, 3 nmol/kg twice a week): 94.4 % of initial | Body Weight, Mean (Day 4, 10 nmol/kg twice a week): 94.6 % of initial | Body Weight, Mean (Day 4, 30 nmol/kg twice a week): 94.8 % of initial | Body Weight, Mean (Day 5, 3 nmol/kg twice a week): 92.8 % of initial | Body Weight, Mean (Day 5, 10 nmol/kg twice a week): 92.8 % of initial | Body Weight, Mean (Day 5, 30 nmol/kg twice a week): 92.8 % of initial | Body Weight, Mean (Day 6, 3 nmol/kg twice a week): 91.9 % of initial | Body Weight, Mean (Day 6, 10 nmol/kg twice a week): 91.5 % of initial | Body Weight, Mean (Day 6, 30 nmol/kg twice a week): 91.7 % of initial | Body Weight, Mean (Day 7, 3 nmol/kg twice a week): 91.0 % of initial | Body Weight, Mean (Day 7, 10 nmol/kg twice a week): 90.7 % of initial | Body Weight, Mean (Day 7, 30 nmol/kg twice a week): 90.8 % of initial | Body Weight, Mean (Day 8, 3 nmol/kg twice a week): 90.0 % of initial | Body Weight, Mean (Day 8, 10 nmol/kg twice a week): 89.8 % of initial | Body Weight, Mean (Day 8, 30 nmol/kg twice a week): 89.8 % of initial | Body Weight, Mean (Day 9, 3 nmol/kg twice a week): 89.6 % of initial | Body Weight, Mean (Day 9, 10 nmol/kg twice a week): 89.3 % of initial | Body Weight, Mean (Day 9, 30 nmol/kg twice a week): 89.8 % of initial | Body Weight, Mean (Day 10, 3 nmol/kg twice a week): 89.1 % of initial | Body Weight, Mean (Day 10, 10 nmol/kg twice a week): 88.7 % of initial | Body Weight, Mean (Day 10, 30 nmol/kg twice a week): 89.7 % of initial | Body Weight, Mean (Day 11, 3 nmol/kg twice a week): 91.5 % of initial | Body Weight, Mean (Day 11, 10 nmol/kg twice a week): 90.9 % of initial | Body Weight, Mean (Day 11, 30 nmol/kg twice a week): 92.0 % of initial | Body Weight, Mean (Day 12, 3 nmol/kg twice a week): 91.5 % of initial | Body Weight, Mean (Day 12, 10 nmol/kg twice a week): 89.8 % of initial | Body Weight, Mean (Day 12, 30 nmol/kg twice a week): 90.0 % of initial | Body Weight, Mean (Day 13, 3 nmol/kg twice a week): 92.3 % of initial | Body Weight, Mean (Day 13, 10 nmol/kg twice a week): 90.1 % of initial | Body Weight, Mean (Day 13, 30 nmol/kg twice a week): 90.4 % of initial | Body Weight, Mean (Day 14, 3 nmol/kg twice a week): 92.5 % of initial | Body Weight, Mean (Day 14, 10 nmol/kg twice a week): 91.0 % of initial | Body Weight, Mean (Day 14, 30 nmol/kg twice a week): 90.9 % of initial | Body Weight, Mean (Day 15, 3 nmol/kg twice a week): 92.6 % of initial | Body Weight, Mean (Day 15, 10 nmol/kg twice a week): 90.0 % of initial | Body Weight, Mean (Day 15, 30 nmol/kg twice a week): 89.3 % of initial | Body Weight, Mean (Day 16, 3 nmol/kg twice a week): 93.3 % of initial | Body Weight, Mean (Day 16, 10 nmol/kg twice a week): 91.2 % of initial | Body Weight, Mean (Day 16, 30 nmol/kg twice a week): 89.6 % of initial | Body Weight, Mean (Day 17, 3 nmol/kg twice a week): 94.0 % of initial | Body Weight, Mean (Day 17, 10 nmol/kg twice a week): 91.8 % of initial | Body Weight, Mean (Day 17, 30 nmol/kg twice a week): 90.4 % of initial | Body Weight, Mean (Day 18, 3 nmol/kg twice a week): 94.4 % of initial | Body Weight, Mean (Day 18, 10 nmol/kg twice a week): 92.3 % of initial | Body Weight, Mean (Day 18, 30 nmol/kg twice a week): 91.0 % of initial | Body Weight, Mean (Day 19, 3 nmol/kg twice a week): 95.0 % of initial | Body Weight, Mean (Day 19, 10 nmol/kg twice a week): 91.9 % of initial | Body Weight, Mean (Day 19, 30 nmol/kg twice a week): 90.0 % of initial | Body Weight, Mean (Day 20, 3 nmol/kg twice a week): 95.2 % of initial | Body Weight, Mean (Day 20, 10 nmol/kg twice a week): 91.2 % of initial | Body Weight, Mean (Day 20, 30 nmol/kg twice a week): 89.6 % of initial | Body Weight, Mean (Day 21, 3 nmol/kg twice a week): 95.8 % of initial | Body Weight, Mean (Day 21, 10 nmol/kg twice a week): 92.1 % of initial | Body Weight, Mean (Day 21, 30 nmol/kg twice a week): 90.4 % of initial | Body Weight, Mean (Day 22, 3 nmol/kg twice a week): 96.4 % of initial | Body Weight, Mean (Day 22, 10 nmol/kg twice a week): 92.1 % of initial | Body Weight, Mean (Day 22, 30 nmol/kg twice a week): 90.0 % of initial | Body Weight, Mean (Day 23, 3 nmol/kg twice a week): 97.1 % of initial | Body Weight, Mean (Day 23, 10 nmol/kg twice a week): 92.5 % of initial | Body Weight, Mean (Day 23, 30 nmol/kg twice a week): 90.0 % of initial | Body Weight, Mean (Day 24, 3 nmol/kg twice a week): 97.4 % of initial | Body Weight, Mean (Day 24, 10 nmol/kg twice a week): 93.2 % of initial | Body Weight, Mean (Day 24, 30 nmol/kg twice a week): 91.0 % of initial | Body Weight, Mean (Day 25, 3 nmol/kg twice a week): 97.6 % of initial | Body Weight, Mean (Day 25, 10 nmol/kg twice a week): 93.7 % of initial | Body Weight, Mean (Day 25, 30 nmol/kg twice a week): 91.5 % of initial | Body Weight, Mean (Day 26, 3 nmol/kg twice a week): 98.5 % of initial | Body Weight, Mean (Day 26, 10 nmol/kg twice a week): 94.2 % of initial | Body Weight, Mean (Day 26, 30 nmol/kg twice a week): 91.5 % of initial | Body Weight, Mean (Day 27, 3 nmol/kg twice a week): 98.0 % of initial | Body Weight, Mean (Day 27, 10 nmol/kg twice a week): 94.4 % of initial | Body Weight, Mean (Day 27, 30 nmol/kg twice a week): 91.2 % of initial | Body Weight, Mean (Day 28, 3 nmol/kg twice a week): 98.6 % of initial | Body Weight, Mean (Day 28, 10 nmol/kg twice a week): 94.1 % of initial | Body Weight, Mean (Day 28, 30 nmol/kg twice a week): 91.4 % of initial

From patent US20230133672A1, “FUSION POLYPEPTIDE COMPRISING GDF15 AND POLYPEPTIDE REGION CAPABLE OF O-GLYCOSYLATION” (LG CHEM, LTD., priority 2019, published 2023)
